Data reported in EP2879657B1, “NOVEL SIRT1 ACTIVATORS AND PHARMACEUTICAL OR COSMETIC COMPOSITIONS COMPRISING THEM” (Centre National de la Recherche Scientifique (C.N.R.S.), priority 2012, dated 2014).
Like-named read-outs stand apart in the source and are kept apart here.

How the values were obtained:
[1] = test system: adipocytes humains matures; experiment: Lipolysis: glycerol released by mature adipocytes (AdipoLyze Detection Assay); format: cell-based; settings: Adipocyte, read-out: augmentation de la quantité de glycérol secrété par les adipocytes
Excerpt: Les préadipocytes primaires sous-cutanés humains fournis par Lonza ont été mis en culture (10 000 cellules/puits dans des plaques de 96 puits) dans un milieu de croissance (PGM-2, Lonza, PT-9502) pendant une nuit. A J1, les cellules ont été mises dans le milieu de différenciation pendant 12 jours pour acquérir les caractéristiques des adipocytes matures. […]

Sirt1 = target: T1, Sirt1 (Homo sapiens, UniProt Q96EB6); experiment: HTRF SIRT1 Assay (Cisbio): enzymatic activity of purified Sirt1; format: biochemical; settings: 0.5 h; at about 2,5 µM (1 µg/ml); vs enzyme without compound; read-out: % d'augmentation de l'activité de Sirt1
T1 construct: purchased Cisbio
T1 sequence (Q96EB6 1-747): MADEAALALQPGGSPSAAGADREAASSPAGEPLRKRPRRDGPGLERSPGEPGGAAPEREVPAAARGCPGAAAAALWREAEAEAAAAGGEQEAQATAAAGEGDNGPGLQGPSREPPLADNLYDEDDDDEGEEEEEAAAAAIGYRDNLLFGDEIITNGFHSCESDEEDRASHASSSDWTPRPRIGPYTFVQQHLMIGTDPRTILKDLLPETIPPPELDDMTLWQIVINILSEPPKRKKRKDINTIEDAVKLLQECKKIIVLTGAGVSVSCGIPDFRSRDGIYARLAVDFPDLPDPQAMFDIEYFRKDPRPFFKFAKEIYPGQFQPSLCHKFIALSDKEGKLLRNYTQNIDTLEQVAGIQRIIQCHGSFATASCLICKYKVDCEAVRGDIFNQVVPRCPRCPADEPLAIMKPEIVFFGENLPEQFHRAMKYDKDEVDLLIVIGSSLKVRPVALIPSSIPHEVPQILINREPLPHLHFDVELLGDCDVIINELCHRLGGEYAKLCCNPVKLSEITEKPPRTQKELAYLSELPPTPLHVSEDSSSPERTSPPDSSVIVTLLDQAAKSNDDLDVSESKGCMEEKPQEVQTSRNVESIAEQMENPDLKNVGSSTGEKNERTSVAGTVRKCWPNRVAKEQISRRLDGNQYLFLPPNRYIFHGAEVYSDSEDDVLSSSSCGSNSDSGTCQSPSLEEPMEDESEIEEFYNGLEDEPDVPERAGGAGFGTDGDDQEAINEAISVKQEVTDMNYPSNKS
Procedure: L'activité enzymatique de Sirt1 a été évaluée à l'aide du kit «HTRF^R SIRT1 Assay » vendu par la Société Cisbio. Lors de ces expériences, l'enzyme purifiée a été incubée à température ambiante en présence du NAD (cofacteur) de son substrat acétylé et du composé à tester utilisé aux concentrations variant de 0,24 µM à 280 µM. « SIRT1 Activator 3 », un activateur commercial de Sirt1 a été utilisé comme un contrôle positif. Après 30 min d'incubation, la réaction enzymatique est arrêtée et la quantité de substrat acétylé restante est évaluée à l'aide d'un anticorps spécifique.
Une augmentation de l'activité enzymatique de Sirt1 en présence des composés décrits s'est traduite par une diminution de la quantité d'anticorps capable de se fixer sur le substrat et donc par une diminution de l'émission de fluorescence qui en résulte, comparé à la valeur obtenue avec l'enzyme seule. Les résultats sont exprimés en % d'augmentation de l'activité de Sirt1 par rapport à celle obtenue avec l'enzyme sans ajout des composés.

[2] = 50 µM, mature adipocytes treated 72h, culture supernatant

SMILES	activation at 50 µM [1, 2]	activation at 2.5 µM (Sirt1)	activation at 50 µM ([1]; 72 h)
CC(=O)N[C@H]1CC[C@@]2(C)C(=CC[C@H]3[C@@H]4CC[C@H]([C@H](C)NC(C)=O)[C@@]4(COC(C)=O)CC[C@@H]32)C1 (single isomer, unassigned; diac) [C3, Acétatede 3 β, 20 α-diacétamido-pregn-5-en-18-ol]	18%		
CC(=O)N(C)[C@H]1CC[C@@]2(C)C(=CC[C@H]3[C@@H]4CC[C@@H]5[C@H](C)N(C(C)=O)C[C@@]54CC[C@@H]32)C1 [C6, N-acétyl-3 β-(N-méthylacétamido)-norcon-5-énine]	41%	> 50%	
CC(=O)N(C)[C@H]1CC[C@@]2(C)[C@@H](CC[C@@H]3[C@@H]2CC[C@]2(C)[C@@H]([C@H](C)N(C)C)CC[C@@H]32)C1 [C2, N-[(3 β, 5 α, 20S)-20-(diméthylamino)pregnan-3-yl]-N-méthyl-acétamide]	24%		
C[C@@H]([C@H]1CC[C@H]2[C@@H]3CC[C@H]4C[C@@H](O)CC[C@]4(C)[C@H]3CC[C@]12C)N(C)C [C1, 20-(diméthylamino)-, (3β,5α,20S)-pregnan-3-ol]		> 50%	44%
CC(=O)N(C)[C@H]1CC[C@@]2(C)C(=C[C@H](O)[C@H]3[C@@H]4CC[C@@H]5[C@H](C)OC(=O)[C@@]54CC[C@@H]32)C1 [C4, Acide 3-(acétylméthylamino)-7,20-dihydroxy-, γ-lactone, (3 β, 7 β ,20S)-pregn-5-èn-18-oïque]	10%	> 50%	
CC(=O)N(C)[C@H]1CC[C@@]2(C)C(=CC(=O)[C@H]3[C@@H]4CC[C@@H]5[C@H](C)OC(=O)[C@@]54CC[C@@H]32)C1 [C5, Acide 20 α-hydroxy-3 β-(N-méthylacétamido)-7-oxo-, γ-lactone pregn-5-èn-18-oïque]	14%		
